Positions of bridges follow the written chain, without caps; N, C: chain ends. Non-standard residues stand in square brackets, D forms with d. Residues, ends and D or L forms follow the SMILES beside them. Chains are numbered I, II in the order given. No end group written: not given here. 2Nal = N[C@@H](Cc1ccc2ccccc2c1)C(=O)O; Lys(iPr) = CC(C)NCCCC[C@H](N)C(=O)O
Legend:
CXCR4 [1] = settings: previous studies by others; read-out: IC50, inhibition of calcium mobilization; cited from earlier work
From the text: To understand the receptor–ligand recognition mechanism involving CXCR4 and its antagonists, here in this study we conducted a series of comparative analyses of the biological activities and CXCR4 binding sites of eleven known CXCR4 antagonists, including the three mentioned above, using cell-based bioassays, CXCR4 site-directed mutagenesis and computer-aided molecular modeling.

CXCR4 [2] = target: T1, CXCR4 (Homo sapiens, UniProt P61073); experiment: CXCR4-mediated internalization assay, CHO cells expressing CXCR4-EGFP (confocal); assay type: cell-based; set-up: expressed in transfected cells; settings: same concentrations as in calcium mobilization assay; 50 nM SDF-1α; compared with their effect on calcium mobilization
T1 sequence (P61073 whole entry): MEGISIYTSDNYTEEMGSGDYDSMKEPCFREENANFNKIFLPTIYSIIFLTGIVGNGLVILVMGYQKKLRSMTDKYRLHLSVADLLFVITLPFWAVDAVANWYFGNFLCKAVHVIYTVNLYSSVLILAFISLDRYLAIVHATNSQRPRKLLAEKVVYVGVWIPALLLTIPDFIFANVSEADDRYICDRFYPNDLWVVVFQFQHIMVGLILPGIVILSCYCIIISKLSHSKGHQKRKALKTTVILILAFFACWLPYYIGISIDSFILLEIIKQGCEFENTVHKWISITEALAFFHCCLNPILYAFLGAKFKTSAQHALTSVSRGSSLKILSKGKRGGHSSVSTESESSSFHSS
Protocol: Figure 3 The inhibitory effect of the antagonists on CXCR4 internalization CHO cells expressed CXCR4-EGFP conjugates were seeded in 96-well plate with glass bottom. Untreated cells were used as a control. Cells were pre-treated with or without CXCR4 antagonists and internalized with 50 nM SDF-1α (scale bar: 5 μm). The concentrations of the antagonists used were the same as those for the calcium mobilization assay shown above. The data shown were representative of three independent experiments.
CXCR4 and EGFP were amplified using a primer shown in Supplementary Table S1. The pcDNA3 vector was digested by restriction-enzyme EcoR1 and Apa1. CXCR4 was digested by restriction-enzyme EcoR1 and Xba1. EGFP was digested by restriction-enzyme Xba1 and Apa1. CXCR4–EGFP conjugate was constructed by ligation of three DNA fragments using T4 ligase. The vector containing CXCR4 ligated EGFP at the C-terminus was transfected and expressed in CHO cells in 100 μl DMEM medium supplemented with 2% FBS at 1 × 10^5/ml which was seeded in 96-well black plate glass bottom and incubated at 37°C overnight. Following incubation with tested compounds for 10 min, 50 nM of SDF-1α was added to each well and the internalized CXCR4 was observed using a confocal microscopy (Zeiss LSM880).

CXCR4 [3] = target: T1, CXCR4; set-up: expressed in transfected cells; settings: previously published result; ref 42 (table footnote; text b13 cites 46); read-out: IC50 (nM), inhibition of 12G5 binding to CXCR4; cited from earlier work
From the text: Table 1 Sequences and structures of eleven antagonists | column: IC50 (nM)

With CC(C)NCCCC[C@H](NC(=O)[C@H]1CCC(=O)N[C@@H](Cc2ccccc2)C(=O)N[C@@H](Cc2ccc(O)cc2)C(=O)N[C@@H](CCCCNC(C)C)C(=O)N[C@H](CCCNC(=N)N)C(=O)N[C@@H](Cc2ccc3ccccc3c2)C(=O)NCC(=O)N1)C(N)=O [LY2510924] (FY[Lys(iPr)][dR][2Nal]G[dE][Lys(iPr)]-NH2; lactam N-7 (inferred)) the “Effect on blocking CXCR4 endocytosis (in words)” value (CXCR4 [2]) was “lessened effect”.
For “LGASWHRPDKCCLGYQKRPLPQVLLSSWYPTSQLCSKPGVIFLTKRGRQVCADKSKDWVKKLMQQLPVTAR [vMIP-II, viral macrophage-inflammatory protein-II, full-length natural chemokine antagonist produced by human herpesvirus-8; recombinant from Peprotech]”, the IC50 (CXCR4 [3]) is given as 10 nM.
For NCCCCN(Cc1nc2ccccc2[nH]1)[C@H]1CCCc2cccnc21 [AMD11070], the IC50 (CXCR4 [1]) is listed as 9 nM.
For “I: [dL]G[dA][dS][dW][dH][dR][dP][dD][dK][dC][dC][dL]G[dY][dQ][dK][dR][dP][dL][dP] / II: [dL]G[dA][dS][dW][dH][dR][dP][dD][dK][dC][dC][dL]G[dY][dQ][dK][dR][dP][dL][dP] (disulfide I:11-II:11, I:12-II:12) [DV1 dimer]”, the “Effect on blocking CXCR4 endocytosis (in words)” value (CXCR4 [2]) was “lessened effect”.

Reference: publication PMC10987480, “Biological and mutational analyses of CXCR4–antagonist interactions and design of new antagonistic analogs” (Bioscience Reports, 2023)
